Results as given in patent publication US12343326B2, “Psychoactive medicines and their use for treating psychiatric and neurological conditions and disorders” (Transcend Therapeutics, Inc., priority 2021, dated 2025).

How the values were obtained:
Assay in all cases: β-arrestin based GPCR screen (PathHunter / GPCRmax), antagonist mode
[1] = target: 168 GPCRs (Homo sapiens, UniProt O95838); conditions: GLP2R
[2] = target: 168 GPCRs (Homo sapiens, UniProt P08912); conditions: CHRM5, Antagonist
[3] = target: 168 GPCRs (Homo sapiens, UniProt P18089); conditions: ADRA2B, Antagonist
168 GPCRs (Homo sapiens, UniProt P18089), sequence (P18089 whole entry): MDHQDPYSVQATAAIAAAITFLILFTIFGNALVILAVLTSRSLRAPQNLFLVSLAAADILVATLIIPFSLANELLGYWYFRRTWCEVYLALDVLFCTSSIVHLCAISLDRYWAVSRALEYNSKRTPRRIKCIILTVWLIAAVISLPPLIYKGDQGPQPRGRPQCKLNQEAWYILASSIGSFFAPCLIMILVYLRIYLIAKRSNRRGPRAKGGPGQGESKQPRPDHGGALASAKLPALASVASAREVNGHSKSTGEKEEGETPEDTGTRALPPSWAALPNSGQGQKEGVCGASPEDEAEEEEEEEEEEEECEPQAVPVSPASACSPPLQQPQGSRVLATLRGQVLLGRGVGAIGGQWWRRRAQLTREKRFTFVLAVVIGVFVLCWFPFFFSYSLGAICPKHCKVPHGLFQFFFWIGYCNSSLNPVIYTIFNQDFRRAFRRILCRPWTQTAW

[4] = target: 168 GPCRs (Homo sapiens, UniProt P21462)
[5] = target: 168 GPCRs (Homo sapiens, UniProt P21917)
168 GPCRs (Homo sapiens, UniProt P21917), sequence (P21917 whole entry): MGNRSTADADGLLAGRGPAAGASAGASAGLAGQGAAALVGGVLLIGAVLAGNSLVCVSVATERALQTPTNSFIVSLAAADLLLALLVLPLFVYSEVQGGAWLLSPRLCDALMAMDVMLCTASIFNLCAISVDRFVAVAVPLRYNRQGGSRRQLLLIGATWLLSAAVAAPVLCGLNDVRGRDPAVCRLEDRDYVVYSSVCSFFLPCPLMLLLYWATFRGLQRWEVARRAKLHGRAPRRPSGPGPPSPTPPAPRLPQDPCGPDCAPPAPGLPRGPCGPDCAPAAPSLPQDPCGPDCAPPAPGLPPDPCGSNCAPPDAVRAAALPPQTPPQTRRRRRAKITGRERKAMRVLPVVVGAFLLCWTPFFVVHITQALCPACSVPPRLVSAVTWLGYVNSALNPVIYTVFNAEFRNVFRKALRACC

[6] = target: 168 GPCRs (Homo sapiens, UniProt P25101); conditions: EDNRA
[7] = target: 168 GPCRs (Homo sapiens, UniProt P28222); conditions: HTR1B
[8] = target: 168 GPCRs (Homo sapiens, UniProt P30518); conditions: AVPR2, Antagonist
168 GPCRs (Homo sapiens, UniProt P30518), sequence (P30518 whole entry): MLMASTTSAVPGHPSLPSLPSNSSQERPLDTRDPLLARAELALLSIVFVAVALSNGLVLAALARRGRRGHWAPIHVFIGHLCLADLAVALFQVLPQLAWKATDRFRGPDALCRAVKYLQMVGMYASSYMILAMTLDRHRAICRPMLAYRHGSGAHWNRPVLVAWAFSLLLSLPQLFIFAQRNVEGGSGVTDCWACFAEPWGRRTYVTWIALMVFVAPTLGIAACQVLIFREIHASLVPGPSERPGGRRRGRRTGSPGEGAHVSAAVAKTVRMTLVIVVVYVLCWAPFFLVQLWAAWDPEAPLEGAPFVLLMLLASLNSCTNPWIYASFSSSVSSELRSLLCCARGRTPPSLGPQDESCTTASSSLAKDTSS

[9] = target: 168 GPCRs (Homo sapiens, UniProt P30989)
[10] = target: 168 GPCRs (Homo sapiens, UniProt P35368); conditions: ADRA1B, Antagonist
[11] = target: 168 GPCRs (Homo sapiens, UniProt P41968); conditions: MC3R
168 GPCRs (Homo sapiens, UniProt P41968), sequence (P41968 whole entry): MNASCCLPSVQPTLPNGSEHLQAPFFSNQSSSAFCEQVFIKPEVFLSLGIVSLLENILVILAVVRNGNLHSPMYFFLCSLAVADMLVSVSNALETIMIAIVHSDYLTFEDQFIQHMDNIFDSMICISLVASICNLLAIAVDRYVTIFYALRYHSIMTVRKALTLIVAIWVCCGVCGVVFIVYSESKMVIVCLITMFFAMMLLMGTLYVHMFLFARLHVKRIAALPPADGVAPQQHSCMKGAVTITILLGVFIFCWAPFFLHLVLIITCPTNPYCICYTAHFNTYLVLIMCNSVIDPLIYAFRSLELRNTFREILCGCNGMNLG

[12] = target: 168 GPCRs (Homo sapiens, UniProt P48039); conditions: MTNR1A
168 GPCRs (Homo sapiens, UniProt P48039), sequence (P48039 whole entry): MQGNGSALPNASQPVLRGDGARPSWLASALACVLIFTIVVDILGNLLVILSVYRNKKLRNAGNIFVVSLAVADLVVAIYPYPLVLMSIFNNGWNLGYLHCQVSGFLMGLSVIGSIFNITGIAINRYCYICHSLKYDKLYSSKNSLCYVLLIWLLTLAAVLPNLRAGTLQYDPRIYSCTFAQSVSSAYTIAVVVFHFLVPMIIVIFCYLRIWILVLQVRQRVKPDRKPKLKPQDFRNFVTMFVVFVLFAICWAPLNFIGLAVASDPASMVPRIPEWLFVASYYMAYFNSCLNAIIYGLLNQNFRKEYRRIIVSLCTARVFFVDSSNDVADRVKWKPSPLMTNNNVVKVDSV

[13] = target: 168 GPCRs (Homo sapiens, UniProt P49190)
168 GPCRs (Homo sapiens, UniProt P49190), sequence (P49190 25-550): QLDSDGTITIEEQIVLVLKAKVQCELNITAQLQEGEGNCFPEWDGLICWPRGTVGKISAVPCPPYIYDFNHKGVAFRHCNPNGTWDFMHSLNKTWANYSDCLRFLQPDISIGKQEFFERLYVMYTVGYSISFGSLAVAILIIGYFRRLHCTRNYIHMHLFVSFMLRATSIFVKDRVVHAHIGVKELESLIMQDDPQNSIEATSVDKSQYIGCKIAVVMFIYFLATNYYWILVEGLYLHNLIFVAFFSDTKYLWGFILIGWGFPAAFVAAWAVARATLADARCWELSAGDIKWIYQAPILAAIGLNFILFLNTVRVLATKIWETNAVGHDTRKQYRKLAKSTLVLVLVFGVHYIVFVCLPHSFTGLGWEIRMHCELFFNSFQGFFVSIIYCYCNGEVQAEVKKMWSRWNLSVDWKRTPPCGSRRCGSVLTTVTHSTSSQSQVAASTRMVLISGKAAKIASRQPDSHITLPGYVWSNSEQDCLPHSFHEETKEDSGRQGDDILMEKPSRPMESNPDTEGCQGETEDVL

[14] = target: 168 GPCRs (Homo sapiens, UniProt P49238)
168 GPCRs (Homo sapiens, UniProt P49238), sequence (P49238 whole entry): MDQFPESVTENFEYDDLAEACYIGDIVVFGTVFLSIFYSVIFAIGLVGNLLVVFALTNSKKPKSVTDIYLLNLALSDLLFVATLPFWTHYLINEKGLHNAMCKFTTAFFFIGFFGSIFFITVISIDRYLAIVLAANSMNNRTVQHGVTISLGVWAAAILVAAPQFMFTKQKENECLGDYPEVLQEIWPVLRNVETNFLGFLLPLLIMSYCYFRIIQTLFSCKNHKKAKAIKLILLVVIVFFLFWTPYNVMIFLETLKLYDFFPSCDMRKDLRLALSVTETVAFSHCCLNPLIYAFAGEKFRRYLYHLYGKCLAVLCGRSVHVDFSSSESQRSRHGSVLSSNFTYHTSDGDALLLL

[15] = target: 168 GPCRs (Homo sapiens, UniProt P50391)
168 GPCRs (Homo sapiens, UniProt P50391), sequence (P50391 whole entry): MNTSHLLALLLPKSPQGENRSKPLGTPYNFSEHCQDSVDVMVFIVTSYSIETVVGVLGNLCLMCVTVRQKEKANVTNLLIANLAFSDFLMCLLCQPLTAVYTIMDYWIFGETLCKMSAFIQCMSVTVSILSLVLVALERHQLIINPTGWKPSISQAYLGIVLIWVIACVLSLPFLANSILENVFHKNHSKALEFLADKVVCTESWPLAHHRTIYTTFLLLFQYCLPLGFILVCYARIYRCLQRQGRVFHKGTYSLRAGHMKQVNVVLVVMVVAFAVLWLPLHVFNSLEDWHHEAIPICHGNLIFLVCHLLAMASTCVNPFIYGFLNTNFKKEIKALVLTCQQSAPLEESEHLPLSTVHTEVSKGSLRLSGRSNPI

[16] = target: 168 GPCRs (Homo sapiens, UniProt P51679); conditions: CCR4, Antagonist
168 GPCRs (Homo sapiens, UniProt P51679), sequence (P51679 whole entry): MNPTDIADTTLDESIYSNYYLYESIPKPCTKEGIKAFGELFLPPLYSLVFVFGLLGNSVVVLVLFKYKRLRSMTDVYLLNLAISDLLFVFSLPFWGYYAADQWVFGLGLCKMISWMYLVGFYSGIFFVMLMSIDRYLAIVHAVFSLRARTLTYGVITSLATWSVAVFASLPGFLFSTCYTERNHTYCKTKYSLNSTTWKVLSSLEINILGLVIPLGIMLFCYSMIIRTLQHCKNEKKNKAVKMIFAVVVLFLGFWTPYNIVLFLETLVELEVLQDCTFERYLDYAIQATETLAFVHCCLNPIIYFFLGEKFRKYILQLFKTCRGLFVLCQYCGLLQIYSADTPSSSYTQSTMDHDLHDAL

[17] = target: 168 GPCRs (Homo sapiens, UniProt P61073)
[18] = target: 168 GPCRs (Homo sapiens, UniProt Q8TDS5)
168 GPCRs (Homo sapiens, UniProt Q8TDS5), sequence (Q8TDS5 whole entry): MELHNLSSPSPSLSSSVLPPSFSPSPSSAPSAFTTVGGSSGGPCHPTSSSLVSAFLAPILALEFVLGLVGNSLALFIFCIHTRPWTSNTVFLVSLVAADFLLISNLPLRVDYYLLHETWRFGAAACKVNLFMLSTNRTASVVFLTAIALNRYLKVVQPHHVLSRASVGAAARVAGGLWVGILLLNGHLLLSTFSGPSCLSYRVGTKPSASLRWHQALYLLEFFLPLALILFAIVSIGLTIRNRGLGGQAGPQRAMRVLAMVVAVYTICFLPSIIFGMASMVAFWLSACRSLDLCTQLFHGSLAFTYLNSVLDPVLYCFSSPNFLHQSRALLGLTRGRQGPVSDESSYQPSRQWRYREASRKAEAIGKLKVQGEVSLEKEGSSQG

[19] = target: 168 GPCRs (Homo sapiens, UniProt Q8TDV5)
[20] = target: 168 GPCRs (Homo sapiens, UniProt Q96LB1)
[21] = target: 168 GPCRs (Homo sapiens, UniProt Q9H244)
168 GPCRs (Homo sapiens, UniProt Q9H244), sequence (Q9H244 whole entry): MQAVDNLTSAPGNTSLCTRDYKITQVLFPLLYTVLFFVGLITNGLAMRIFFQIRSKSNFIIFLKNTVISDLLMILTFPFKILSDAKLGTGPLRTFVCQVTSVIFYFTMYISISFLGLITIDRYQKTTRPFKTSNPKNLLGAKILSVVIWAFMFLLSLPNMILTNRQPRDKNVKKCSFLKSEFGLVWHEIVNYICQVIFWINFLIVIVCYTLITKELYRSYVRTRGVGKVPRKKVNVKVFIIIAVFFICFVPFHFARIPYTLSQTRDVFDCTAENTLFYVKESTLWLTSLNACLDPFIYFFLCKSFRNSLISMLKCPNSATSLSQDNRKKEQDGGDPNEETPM

[22] = tested on: 168 GPCRs

168 GPCRs (Homo sapiens, UniProt O95838), sequence (O95838 whole entry): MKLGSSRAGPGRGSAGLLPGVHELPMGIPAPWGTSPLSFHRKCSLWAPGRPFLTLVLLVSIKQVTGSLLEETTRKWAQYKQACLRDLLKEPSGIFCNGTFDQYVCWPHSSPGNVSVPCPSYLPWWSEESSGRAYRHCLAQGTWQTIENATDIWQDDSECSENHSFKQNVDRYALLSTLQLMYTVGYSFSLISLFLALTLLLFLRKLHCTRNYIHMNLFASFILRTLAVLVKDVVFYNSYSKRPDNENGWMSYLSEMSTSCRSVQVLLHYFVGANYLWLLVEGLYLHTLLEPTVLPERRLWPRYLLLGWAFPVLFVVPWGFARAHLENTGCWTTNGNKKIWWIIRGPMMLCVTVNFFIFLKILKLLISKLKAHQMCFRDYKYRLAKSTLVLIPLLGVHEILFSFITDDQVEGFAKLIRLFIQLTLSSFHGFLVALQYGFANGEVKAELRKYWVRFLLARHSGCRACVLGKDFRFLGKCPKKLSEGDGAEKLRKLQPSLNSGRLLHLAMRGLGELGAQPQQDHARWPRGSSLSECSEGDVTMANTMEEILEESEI

Structure (SMILES): CNC(C)C(=O)c1ccc2c(c1)OCO2 (centres unmarked) [methylone, 3,4-methylenedioxy-N-methylcathinone]
- activity at 10 µM ([1]; Antagonist mode, 10 uM): 5.4%
- activity at 1 µM ([1]; Antagonist, 1 uM): 5.4%
- activity at 1 µM ([2]; 1 uM): -8%
- activity at 10 µM ([2]; 10 uM): -7.6%
- activity at 1 µM ([3]; 1 uM): 8.5%
- activity at 10 µM ([3]; 10 uM): 6.3%
- activity at 10 µM ([4]; FPR1, Antagonist mode, 10 uM): -11.4%
- activity at 1 µM ([4]; FPR1, Antagonist, 1 uM): -4.9%
- activity at 10 µM ([5]; DRD4, Antagonist mode, 10 uM): 12.2%
- activity at 1 µM ([5]; DRD4, Antagonist, 1 uM): 8.4%
- activity at 10 µM ([6]; Antagonist mode, 10 uM): -11.3%
- activity at 1 µM ([6]; Antagonist, 1 uM): -2.4%
- activity at 10 µM ([7]; Antagonist mode, 10 uM): -6.2%
- activity at 1 µM ([7]; Antagonist, 1 uM): -9.5%
- activity at 1 µM ([8]; 1 uM): -2.7%
- activity at 10 µM ([8]; 10 uM): -14.8%
- activity at 10 µM ([9]; NTSR1, Antagonist mode, 10 uM): -1.7%
- activity at 1 µM ([9]; NTSR1, Antagonist, 1 uM): -0.7%
- activity at 1 µM ([10]; 1 uM): 17.9%
- activity at 10 µM ([10]; 10 uM): 20.6%
- activity at 10 µM ([11]; Antagonist mode, 10 uM): 0.3%
- activity at 1 µM ([11]; Antagonist, 1 uM): -5.7%
- activity at 10 µM ([12]; Antagonist mode, 10 uM): 7.8%
- activity at 1 µM ([12]; Antagonist, 1 uM): 30.8%
- activity at 10 µM ([13]; PTHR2, Antagonist mode, 10 uM): -0.2%
- activity at 1 µM ([13]; PTHR2, Antagonist, 1 uM): -1%
- activity at 10 µM ([14]; CX3CR1, Antagonist mode, 10 uM): -6.1%
- activity at 1 µM ([14]; CX3CR1, Antagonist, 1 uM): -0.2%
- activity at 10 µM ([15]; PPYR1, Antagonist mode, 10 uM): 6.5%
- activity at 1 µM ([15]; PPYR1, Antagonist, 1 uM): 9.5%
- activity at 1 µM ([16]; 1 uM): 10%
- activity at 10 µM ([16]; 10 uM): 9.5%
- activity at 10 µM ([17]; CXCR4, Antagonist mode, 10 uM): -4.2%
- activity at 1 µM ([17]; CXCR4, Antagonist, 1 uM): 10.7%
- activity at 10 µM ([18]; OXER1, Antagonist mode, 10 uM): 7.6%
- activity at 1 µM ([18]; OXER1, Antagonist, 1 uM): 2.9%
- activity at 10 µM ([19]; GPR119, Antagonist mode, 10 uM): -8.8%
- activity at 1 µM ([19]; GPR119, Antagonist, 1 uM): 17.1%
- activity at 10 µM ([20]; MRGPRX2, Antagonist mode, 10 uM): 8.9%
- activity at 1 µM ([20]; MRGPRX2, Antagonist, 1 uM): 16.2%
- activity at 10 µM ([21]; P2RY12, Antagonist mode, 10 uM): -10.4%
- activity at 1 µM ([21]; P2RY12, Antagonist, 1 uM): -14.8%
- antagonist activity at any of the 168 GPCRs (criterion >50% inhibition) ([22]; 1 and 10 micromolar): did not meet criteria for agonist or antagonist activity
- % Activity ([22]; DRD2S, Antagonist mode, 10 uM): −11.6%
- % Activity ([22]; DRD2S, Antagonist, 1 uM): 3.6%
- % Activity ([22]; NPSR1b, Antagonist mode, 10 uM): −7.6%
- % Activity ([22]; NPSR1b, Antagonist, 1 uM): −10.6%
